Laboratory results from patent US20250361268A1, “NOVEL ANTI-INFLAMMATORY PEPTIDE AND USE THEREOF” (NOVACELL TECHNOLOGY INC., priority 2022, published 2025).
Peptide text beside a SMILES is read from it.

T1: FPR2 (Homo sapiens, UniProt P25090)
T1 construct: expressed in transfected cells; host or cells: RBL cells (RBL-FPR2)
T1 sequence (P25090 1-351): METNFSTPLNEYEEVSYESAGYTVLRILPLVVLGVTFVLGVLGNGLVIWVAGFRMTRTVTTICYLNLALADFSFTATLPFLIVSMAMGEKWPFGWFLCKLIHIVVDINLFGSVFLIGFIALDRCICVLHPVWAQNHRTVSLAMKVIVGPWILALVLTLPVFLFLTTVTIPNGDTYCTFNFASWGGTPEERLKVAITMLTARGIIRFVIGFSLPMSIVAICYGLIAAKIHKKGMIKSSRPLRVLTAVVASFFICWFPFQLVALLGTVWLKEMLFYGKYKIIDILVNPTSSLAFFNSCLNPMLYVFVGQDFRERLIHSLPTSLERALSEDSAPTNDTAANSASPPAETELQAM

T2: FPR1 (Homo sapiens, UniProt P21462)
T2 sequence (P21462 1-350): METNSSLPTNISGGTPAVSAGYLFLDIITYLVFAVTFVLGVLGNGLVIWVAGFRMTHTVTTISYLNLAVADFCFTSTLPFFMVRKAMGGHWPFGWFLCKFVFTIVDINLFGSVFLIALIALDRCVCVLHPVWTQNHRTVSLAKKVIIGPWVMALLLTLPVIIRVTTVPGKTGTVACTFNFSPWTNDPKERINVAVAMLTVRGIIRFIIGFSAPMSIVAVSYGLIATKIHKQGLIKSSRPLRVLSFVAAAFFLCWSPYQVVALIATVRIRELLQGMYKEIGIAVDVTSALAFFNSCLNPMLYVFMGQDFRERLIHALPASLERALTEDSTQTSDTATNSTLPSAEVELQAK

T3: FPR1 (UniProt P21462 1-350, limits assumed)
T3 sequence (looked up): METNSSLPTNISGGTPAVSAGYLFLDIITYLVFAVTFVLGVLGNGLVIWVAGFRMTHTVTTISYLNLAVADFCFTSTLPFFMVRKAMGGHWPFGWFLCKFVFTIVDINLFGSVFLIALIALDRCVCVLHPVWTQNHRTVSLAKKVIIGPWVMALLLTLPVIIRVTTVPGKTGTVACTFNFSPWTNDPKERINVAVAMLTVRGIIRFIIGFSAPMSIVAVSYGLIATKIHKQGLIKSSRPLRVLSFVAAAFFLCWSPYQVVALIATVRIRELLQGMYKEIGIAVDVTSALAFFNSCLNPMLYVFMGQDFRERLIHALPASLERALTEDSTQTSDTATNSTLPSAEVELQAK


Tests used:
FPR2 = target: T1, FPR2; experiment: Change in calcium activity by peptide (Fura-2) in RBL cells overexpressing FPR2; assay type: cell-based; details: calcium activity (Fura-2), graded per Table 3, read-out: EC50 for [Ca^2+] FPR2
Summary of the method: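 Peptide-induced intracellular calcium change measured by Fura-2 fluorescence on a plate reader. Cells: RBL line overexpressing FPR2, dye-loaded 1 h at 37 °C then 30 min at RT in dark; peptides from 0.5 mM water/50% DMSO stocks, diluted in HBSS with 20 mM HEPES.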

FPR1 [1] = target: T2, FPR1; experiment: Change in calcium activity by peptide, FPR1 activation effect; assay type: cell-based; details: calcium activity (Fura-2), graded per Table 3, read-out: EC50 for [Ca^2+] FPR1
Summary of the method: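 Calcium flux induced by peptide addition was monitored on a FlexStation 3 plate reader. Before this, cells seeded a day earlier (3×10^5/well) took up the Fura-2 dye for 1 h at 37 °C plus 30 min dark at room temperature.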

FPR1 [2] = target: T3, FPR1; experiment: cell-based or functional assay

Row | Molecule | EC50 (FPR2) [nM] | EC50 (FPR1 [1]) [nM] | EC50 for [Ca2+] (FPR1 [2]) [nM]
1 | CCCC(=O)N1CCC[C@H]1C(=O)N[C@@H](CCSC)C(=O)N[C@@H](CCCCN)C(=O)N[C@@H](Cc1ccc(O)cc1)C(=O)N[C@@H](CCCCN)C(=O)N[C@H](C(=O)N[C@H](CCSC)C(N)=O)C(C)C [Peptide 27] (HELM PEPTIDE1{[CCCC(=O)[*:2]].P.M.K.Y.K.V.[dM].[am]}$$$$V2.0) | < 10 | > 10000 | –
2 | CSCC[C@H](NC(=O)[C@@H](N)CCCCN)C(=O)N[C@@H](CCCCN)C(=O)N[C@@H](Cc1ccc(O)cc1)C(=O)N[C@@H](CCCCN)C(=O)N1CCC[C@H]1C(=O)N[C@H](CCSC)C(N)=O [Peptide 66] (HELM PEPTIDE1{K.M.K.Y.K.P.[dM].[am]}$$$$V2.0) | 11 to 100 | > 10000 | –
3 | CCCCCCCC(=O)N[C@@H](CCCNC(=N)N)C(=O)N[C@@H](CCSC)C(=O)N[C@@H](CCCNC(=N)N)C(=O)N[C@@H](Cc1ccc(O)cc1)C(=O)N[C@@H](Cc1c[nH]c2ccccc12)C(=O)N1CCC[C@H]1C(=O)N[C@H](CCSC)C(N)=O [Peptide 109] (HELM PEPTIDE1{[CCCCCCCC(=O)[*:2]].R.M.R.Y.W.P.[dM].[am]}$$$$V2.0) | < 10 | 1000 to 10000 | –
4 | CSCC[C@H](N)C(=O)N[C@@H](CCCNC(=N)N)C(=O)N[C@@H](Cc1ccc(O)cc1)C(=O)N[C@@H](CCCCN)C(=O)N[C@H](C(=O)N[C@H](CCSC)C(N)=O)C(C)C [Peptide 13] (HELM PEPTIDE1{M.R.Y.K.V.[dM].[am]}$$$$V2.0) | < 10 | > 10000 | –
5 | CSCC[C@H](NC(=O)[C@@H](N)CCCNC(=N)N)C(=O)N[C@@H](CCCNC(=N)N)C(=O)N[C@@H](Cc1ccc(O)cc1)C(=O)N[C@@H](Cc1c[nH]c2ccccc12)C(=O)N1CCC[C@H]1C(=O)N[C@H](CCSC)C(N)=O [Peptide 106] (HELM PEPTIDE1{R.M.R.Y.W.P.[dM].[am]}$$$$V2.0) | < 10 | 101 to 1000 | –
6 | CCCCCCCC(=O)N[C@@H](CCCNC(=N)N)C(=O)N[C@@H](CCSC)C(=O)N[C@@H](CCCNC(=N)N)C(=O)N[C@@H](Cc1ccc(O)cc1)C(=O)N[C@@H](CCCCN)C(=O)N[C@H](C(=O)N[C@H](CCSC)C(N)=O)C(C)C [Peptide 8] (HELM PEPTIDE1{[CCCCCCCC(=O)[*:2]].R.M.R.Y.K.V.[dM].[am]}$$$$V2.0) | 11 to 100 | > 10000 | –
7 | CC[C@H](C)[C@H](N)C(=O)N[C@@H](CCCCN)C(=O)N[C@@H](Cc1ccc(O)cc1)C(=O)N[C@@H](CCCCN)C(=O)N1CCC[C@H]1C(=O)N[C@H](CCSC)C(N)=O [Peptide 142] (HELM PEPTIDE1{I.K.Y.K.P.[dM].[am]}$$$$V2.0) | < 10 | > 10000 | –
8 | MRYKYM (HELM PEPTIDE1{[CCCC(=O)[*:2]].M.R.Y.K.Y.[dM].[am]}$$$$V2.0; SMILES CCCC(=O)N[C@@H](CCSC)C(=O)N[C@@H](CCCNC(=N)N)C(=O)N[C@@H](Cc1ccc(O)cc1)C(=O)N[C@@H](CCCCN)C(=O)N[C@@H](Cc1ccc(O)cc1)C(=O)N[C@H](CCSC)C(N)=O) [peptide of SEQ ID NO 43] | – | – | > 10000
9 | HMRYKYM (HELM PEPTIDE1{H.M.R.Y.K.Y.[dM].[am]}$$$$V2.0; N-terminus assumed; SMILES CSCC[C@H](NC(=O)[C@@H](N)Cc1c[nH]cn1)C(=O)N[C@@H](CCCNC(=N)N)C(=O)N[C@@H](Cc1ccc(O)cc1)C(=O)N[C@@H](CCCCN)C(=O)N[C@@H](Cc1ccc(O)cc1)C(=O)N[C@H](CCSC)C(N)=O) [peptide of SEQ ID NO 44] | – | – | > 10000

Further lines, results first:

Row | EC50 (FPR2) [nM] | EC50 (FPR1 [1]) [nM] | EC50 for [Ca2+] (FPR1 [2]) [nM] | Molecule
10 | < 10 | > 10000 | – | CCCC(=O)N1CCC[C@H]1C(=O)N[C@@H](CCCCN)C(=O)N[C@@H](Cc1ccc(O)cc1)C(=O)N[C@@H](CCCCN)C(=O)N[C@H](C(=O)N[C@H](CCSC)C(N)=O)C(C)C [Peptide 140] (HELM PEPTIDE1{[CCCC(=O)[*:2]].P.K.Y.K.V.[dM].[am]}$$$$V2.0)
11 | 11 to 100 | > 10000 | – | CC[C@H](C)[C@H](N)C(=O)N[C@@H](CCCCN)C(=O)N[C@@H](Cc1ccccc1)C(=O)N[C@@H](Cc1c[nH]c2ccccc12)C(=O)N[C@@H](Cc1ccc(O)cc1)C(=O)N[C@H](CCSC)C(N)=O [Peptide 128] (HELM PEPTIDE1{I.K.F.W.Y.[dM].[am]}$$$$V2.0)
12 | 11 to 100 | > 10000 | – | CCCCCCCC(=O)N[C@@H](CCSC)C(=O)N[C@@H](CCCNC(=N)N)C(=O)N[C@@H](Cc1ccc(O)cc1)C(=O)N[C@@H](CCCCN)C(=O)N[C@H](C(=O)N[C@H](CCSC)C(N)=O)C(C)C [Peptide 16] (HELM PEPTIDE1{[CCCCCCCC(=O)[*:2]].M.R.Y.K.V.[dM].[am]}$$$$V2.0)
13 | 11 to 100 | > 10000 | – | CCCCCCCC(=O)N[C@@H](CCCNC(=N)N)C(=O)N[C@@H](Cc1c[nH]c2ccccc12)C(=O)N[C@@H](CCCNC(=N)N)C(=O)N[C@@H](Cc1ccc(O)cc1)C(=O)N[C@@H](CCCCN)C(=O)N[C@@H](Cc1ccc(O)cc1)C(=O)N[C@H](CCSC)C(N)=O [Peptide 34] (HELM PEPTIDE1{[CCCCCCCC(=O)[*:2]].R.W.R.Y.K.Y.[dM].[am]}$$$$V2.0)
14 | < 10 | 1000 to 10000 | – | CCCC(=O)N[C@@H](CCSC)C(=O)N[C@@H](CCCNC(=N)N)C(=O)N[C@@H](Cc1ccc(O)cc1)C(=O)N[C@@H](Cc1c[nH]c2ccccc12)C(=O)N1CCC[C@H]1C(=O)N[C@H](CCSC)C(N)=O [Peptide 112] (HELM PEPTIDE1{[CCCC(=O)[*:2]].M.R.Y.W.P.[dM].[am]}$$$$V2.0)
15 | < 10 | > 10000 | – | CSCC[C@H](NC(=O)[C@@H](N)Cc1c[nH]cn1)C(=O)N[C@@H](CCCCN)C(=O)N[C@@H](Cc1ccc(O)cc1)C(=O)N[C@@H](CCCCN)C(=O)N[C@H](C(=O)N[C@H](CCSC)C(N)=O)C(C)C [Peptide 21] (HELM PEPTIDE1{H.M.K.Y.K.V.[dM].[am]}$$$$V2.0)
16 | – | – | > 10000 | RWRYRYM (HELM PEPTIDE1{R.W.R.Y.R.Y.[dM].[am]}$$$$V2.0; N-terminus assumed; SMILES CSCC[C@@H](NC(=O)[C@H](Cc1ccc(O)cc1)NC(=O)[C@H](CCCNC(=N)N)NC(=O)[C@H](Cc1ccc(O)cc1)NC(=O)[C@H](CCCNC(=N)N)NC(=O)[C@H](Cc1c[nH]c2ccccc12)NC(=O)[C@@H](N)CCCNC(=N)N)C(N)=O) [peptide of SEQ ID NO 48]
17 | – | – | > 10000 | MRYRYM (HELM PEPTIDE1{[ac].M.R.Y.R.Y.[dM].[am]}$$$$V2.0; SMILES CSCC[C@H](NC(C)=O)C(=O)N[C@@H](CCCNC(=N)N)C(=O)N[C@@H](Cc1ccc(O)cc1)C(=O)N[C@@H](CCCNC(=N)N)C(=O)N[C@@H](Cc1ccc(O)cc1)C(=O)N[C@H](CCSC)C(N)=O) [peptide of SEQ ID NO 49]
18 | – | – | > 10000 | KMKYKPM (HELM PEPTIDE1{K.M.K.Y.K.P.[dM].[am]}$$$$V2.0; N-terminus assumed; SMILES CSCC[C@H](NC(=O)[C@@H](N)CCCCN)C(=O)N[C@@H](CCCCN)C(=O)N[C@@H](Cc1ccc(O)cc1)C(=O)N[C@@H](CCCCN)C(=O)N1CCC[C@H]1C(=O)N[C@H](CCSC)C(N)=O) [peptide of SEQ ID NO 66]
